Consider twelve compounds from PubChem BioAssay AID246 (DTP/NCI, 2004).

The experiment has as its system BDF1 mice, P1081 chloroleukemia ip, survival T/C. The experiment in a line: NCI In Vivo Anticancer Drug Screen. Data for tumor model P1081 Chloroleukemia (intraperitoneal) in B6D2F1 (BDF1) mice. To be noted: endpoint: mean survival time, higher = longer survival. The protocol: The antitumor activity of compounds was measured in mice bearing transplantable tumors. Survival or tumor size were measured and the results are expressed as the measurement made in the treated group (T) divided by the measurement made in the vehicle treated control group (C). The tumor model used in this assay is P1081 Chloroleukemia (intraperitoneal) in B6D2F1 (BDF1) mice

Where [1] appears, read: dose: 6.25 mg/kg/injection, schedule: Q01DX010 (ip), vehicle: saline.
Where [2] appears, read: dose: 12.5 mg/kg/injection, schedule: Q01DX010 (ip), vehicle: saline.
[3] abbreviates: dose: 25.0 mg/kg/injection, schedule: Q01DX010 (ip), vehicle: saline.
The mark [4] stands for this setting: dose: 6.25 mg/kg/injection, schedule: Q01DX Z (ip), vehicle: carboxymethylcellulose (CMC).
The mark [5] stands for this setting: dose: 15.0 mg/kg/injection, schedule: Q01DX010 (ip), vehicle: saline.
Where [6] appears, read: dose: 30.0 mg/kg/injection, schedule: Q01DX010 (ip), vehicle: saline.
[7] abbreviates: dose: 60.0 mg/kg/injection, schedule: Q01DX010 (ip), vehicle: saline.

Molecules are shown by their SMILES. “And” between values parts separate entries of the source, which are not always exact repeats. Equal values may be shown once. Inconclusive results and toxic doses are left out.

As for `O=[n+]1c2c(n([O-])c3ccccc31)-c1cccc3cccc-2c13`, the T/C is, setting by setting: under setting [1], 100 % of control; under setting [2], 100 % of control; under setting [3], 88 % of control and 90 % of control; (dose: 50.0 mg/kg/injection, schedule: Q01DX010 (ip), vehicle: saline) 88 % of control and 90 % of control.
As for `CC(CCC(C)OS(C)(=O)=O)OS(C)(=O)=O` (stereo not drawn), the T/C (dose: 1.25 mg/kg/injection, schedule: Q01DX Z (ip), vehicle: carboxymethylcellulose (CMC)) was 95 % of control; the T/C (dose: 2.5 mg/kg/injection, schedule: Q01DX Z (ip), vehicle: carboxymethylcellulose (CMC)) was 111 % of control; the T/C (dose: 4.0 mg/kg/injection, schedule: Q01DX010 (ip), vehicle: saline) is 100 % of control; the T/C (dose: 8.0 mg/kg/injection, schedule: Q01DX010 (ip), vehicle: saline) is 105 % of control; the T/C (dose: 16.0 mg/kg/injection, schedule: Q01DX010 (ip), vehicle: saline) was 115 % of control and 105 % of control; the T/C (dose: 32.0 mg/kg/injection, schedule: Q01DX010 (ip), vehicle: saline) is 116 % of control. Further, the T/C (dose: 64.0 mg/kg/injection, schedule: Q01DX010 (ip), vehicle: saline) was 88 % of control.
In the case of `C[N+](C)(C)c1ncnc2nc[nH]c12`, the T/C is 94 % of control (dose: 3.1 mg/kg/injection, schedule: Q01DX Z (ip), vehicle: carboxymethylcellulose (CMC)); 97 % of control under setting [4]; 100 % of control (dose: 12.5 mg/kg/injection, schedule: Q01DX Z (ip), vehicle: carboxymethylcellulose (CMC)); 195 % of control (dose: 100.0 mg/kg/injection, schedule: Q01DX Z (ip), vehicle: carboxymethylcellulose (CMC)).
Take `NC(=O)c1cn(C2OC(CO)C(O)C2O)c2ncnc(N)c12` (stereo not drawn): where the note is “dose: 0.25 mg/kg/injection, schedule: Q01DX Z (ip), vehicle: carboxymethylcellulose (CMC)”, the T/C is 102 % of control.
Regarding `O=C(C[N+]12CN3CN(CN(C3)C1)C2)c1ccc(Cl)cc1`, the T/C (dose: 37.5 mg/kg/injection, schedule: Q01DX010 (ip), vehicle: saline) is 113 % of control and 98 % of control; the T/C (dose: 75.0 mg/kg/injection, schedule: Q01DX010 (ip), vehicle: saline) was 107 % of control and 112 % of control; the T/C (dose: 150.0 mg/kg/injection, schedule: Q01DX010 (ip), vehicle: saline) is 112 % of control and 118 % of control; the T/C (dose: 300.0 mg/kg/injection, schedule: Q01DX010 (ip), vehicle: saline) was 110 % of control and 114 % of control.
With `O=C(Nc1ccc(C2=NCCCN2)cc1)c1ccc(C(=O)Nc2ccc(C3=NCCCN3)cc2)cc1`, the T/C runs as follows: (dose: 0.5 mg/kg/injection, schedule: Q01DX Z (ip), vehicle: water) 109 % of control and 101 % of control; (dose: 1.0 mg/kg/injection, schedule: Q01DX Z (ip), vehicle: water) 110 % of control and 118 % of control; (dose: 4.0 mg/kg/injection, schedule: Q01DX Z (ip), vehicle: water) 162 % of control.
Regarding `C1CN1c1nc(N2CC2)nc(N2CC2)n1`, the T/C is 92 % of control (dose: 0.03 mg/kg/injection, schedule: Q01DX Z (ip), vehicle: saline); 107 % of control (dose: 0.06 mg/kg/injection, schedule: Q01DX Z (ip), vehicle: saline); 95 % of control and 100 % of control (dose: 0.13 mg/kg/injection, schedule: Q01DX010 (ip), vehicle: saline); 94 % of control (dose: 0.25 mg/kg/injection, schedule: Q01DX010 (ip), vehicle: saline); 122 % of control and 102 % of control (dose: 0.25 mg/kg/injection, schedule: Q01DX Z (ip), vehicle: saline); 109 % of control (dose: 0.5 mg/kg/injection, schedule: Q01DX010 (ip), vehicle: saline). For the same compound, the T/C was 121 % of control and 90 % of control (dose: 0.5 mg/kg/injection, schedule: Q01DX Z (ip), vehicle: saline); 88 % of control (dose: 1.0 mg/kg/injection, schedule: Q01DX010 (ip), vehicle: saline); 102 % of control (dose: 1.0 mg/kg/injection, schedule: Q01DX Z (ip), vehicle: saline); 89 % of control (dose: 24.0 micrograms/kg/injection, schedule: Q01DX Z (ip), vehicle: saline); 96 % of control (dose: 48.0 micrograms/kg/injection, schedule: Q01DX Z (ip), vehicle: saline); 98 % of control (dose: 95.0 micrograms/kg/injection, schedule: Q01DX Z (ip), vehicle: saline). Moreover, the T/C (dose: 190.0 micrograms/kg/injection, schedule: Q01DX Z (ip), vehicle: saline) is 89 % of control.
Take `Clc1ncnc2nc[nH]c12`: the T/C (dose: 7.5 mg/kg/injection, schedule: Q01DX010 (ip), vehicle: saline) was 110 % of control and 90 % of control; the T/C under setting [5] was 90 % of control and 100 % of control; the T/C under setting [6] was 110 % of control and 95 % of control; the T/C (dose: 31.25 mg/kg/injection, schedule: Q01DX Z (ip), vehicle: carboxymethylcellulose (CMC)) was 98 % of control; the T/C under setting [7] was 110 % of control and 104 % of control; the T/C (dose: 62.5 mg/kg/injection, schedule: Q01DX Z (ip), vehicle: carboxymethylcellulose (CMC)) was 107 % of control and 105 % of control. In addition, the T/C reads like this: (dose: 125.0 mg/kg/injection, schedule: Q01DX Z (ip), vehicle: carboxymethylcellulose (CMC)) 114 % of control and 121 % of control; (dose: 250.0 mg/kg/injection, schedule: Q01DX Z (ip), vehicle: carboxymethylcellulose (CMC)) 86 % of control and 94 % of control.
As to `C[C@H]1C(=O)O[C@@H]2CCN3CC=C(COC(=O)[C@](C)(O)[C@@]1(C)O)[C@H]23`, the T/C was 115 % of control and 95 % of control (dose: 3.13 mg/kg/injection, schedule: Q01DX010 (ip), vehicle: saline); 100 % of control under setting [1]; 106 % of control (dose: 7.5 mg/kg/injection, schedule: Q01DX Z (ip), vehicle: carboxymethylcellulose (CMC)); 95 % of control under setting [2]; 99 % of control (dose: 15.0 mg/kg/injection, schedule: Q01DX Z (ip), vehicle: carboxymethylcellulose (CMC)); 120 % of control and 95 % of control under setting [3]. Also, the T/C reads like this: (dose: 30.0 mg/kg/injection, schedule: Q01DX Z (ip), vehicle: carboxymethylcellulose (CMC)) 101 % of control; (dose: 60.0 mg/kg/injection, schedule: Q01DX Z (ip), vehicle: carboxymethylcellulose (CMC)) 106 % of control; (dose: 120.0 mg/kg/injection, schedule: Q01DX Z (ip), vehicle: carboxymethylcellulose (CMC)) 153 % of control; (dose: 240.0 mg/kg/injection, schedule: Q01DX Z (ip), vehicle: carboxymethylcellulose (CMC)) 103 % of control.
Take `C[C@]12C=CC(=O)C=C1CC[C@@H]1[C@@H]2C(=O)C[C@@]2(C)[C@H]1CC[C@]2(O)C(=O)CO`: the T/C runs as follows: (dose: 6.25 mg/kg/injection, schedule: Q01DX Z (sc), vehicle: steriod suspending solution) 114 % of control; (dose: 12.5 mg/kg/injection, schedule: Q01DX010 (sc), vehicle: steriod suspending solution) 93 % of control and 100 % of control; (dose: 12.5 mg/kg/injection, schedule: Q01DX Z (sc), vehicle: steriod suspending solution) 111 % of control and 124 % of control; (dose: 25.0 mg/kg/injection, schedule: Q01DX010 (sc), vehicle: steriod suspending solution) 112 % of control and 100 % of control and 101 % of control; (dose: 25.0 mg/kg/injection, schedule: Q01DX Z (sc), vehicle: steriod suspending solution) 105 % of control and 117 % of control; (dose: 50.0 mg/kg/injection, schedule: Q01DX010 (sc), vehicle: steriod suspending solution) 107 % of control and 95 % of control and 100 % of control. Besides, the T/C is 105 % of control and 91 % of control (dose: 50.0 mg/kg/injection, schedule: Q01DX Z (sc), vehicle: steriod suspending solution); 112 % of control and 92 % of control and 93 % of control (dose: 100.0 mg/kg/injection, schedule: Q01DX010 (sc), vehicle: steriod suspending solution); 92 % of control and 102 % of control (dose: 100.0 mg/kg/injection, schedule: Q01DX Z (sc), vehicle: steriod suspending solution); 92 % of control and 93 % of control (dose: 200.0 mg/kg/injection, schedule: Q01DX010 (sc), vehicle: steriod suspending solution); 98 % of control (dose: 200.0 mg/kg/injection, schedule: Q01DX Z (sc), vehicle: steriod suspending solution).
Consider `N#CCSc1ncnc2nc[nH]c12`, for which the T/C under setting [4] was 119 % of control; the T/C under setting [5] is 110 % of control; the T/C under setting [6] was 105 % of control and 95 % of control; the T/C (dose: 50.0 mg/kg/injection, schedule: Q01DX Z (ip), vehicle: carboxymethylcellulose (CMC)) is 101 % of control; the T/C under setting [7] was 110 % of control.
As to `S=P(N1CC1)(N1CC1)N1CC1`, the T/C was 98 % of control (dose: 0.37 mg/kg/injection, schedule: Q01DX Z (ip), vehicle: saline); 96 % of control (dose: 0.75 mg/kg/injection, schedule: Q01DX Z (ip), vehicle: saline); 109 % of control (dose: 1.5 mg/kg/injection, schedule: Q01DX Z (ip), vehicle: saline).
